Key:
[1] = biological target: T1, association of the viral matrix protein (p 17) with karyopherin α (Human immunodeficiency virus type 1 group M subtype B, UniProt P04591); experiment: cell free assay of PIC binding to karyopherin α (HIV DNA in the Kα fraction); conditions: cytoplasmic extracts of HIV-1 infected human monocyte-derived macrophages; FIG. 1
T1 construct: The PIC is comprised of a number of viral proteins including MA (p17); endogenous in cells; host or cells: cytoplasmic extracts of human monocyte-derived macrophages infected with HIV-1 (virus-made protein in the PIC)
Text: The inhibition of a molecular target by ITI-367 is illustrated in FIG. 1. The molecular target for nuclear entry of HIV-1 is the association of the viral matrix protein (p 17) carrying the nuclear localization sequences, with the intracellular protein karyopherin α. To validate the activity of ITI-367, a cell free assay was used whereby human monocyte-derived macrophages collected from fresh blood samples were infected with HIV-1. At the predetermined time cells were lysed and the cytoplasmic extracts collected. The extracts contain HIV-1 pre-integration complexes (PIC) that represent the structure within which the HIV-1 cDNA is imported into the nucleus. The PIC is comprised of a number of viral proteins including MA (p17). […] Therefore, this is a cell free assay. The extent of binding was measured by evaluating the levels of HIV DNA found in the Kα fraction in the presence or absence of test compound.

ADA strain of HIV-1 = experiment: inhibition of HIV-1 infection in monocyte-derived macrophages; assay type: cell-based; conditions: 10, 1, 0.1, 0.01 μM; over a two week period; FIG. 2
Procedure: Macrophages were prepared as described above. After a week of culture in M-CSF, cells were washed several times in RPMI and pre-incubated in complete (NHS, pen/strep, L-glutamine) medium with compound ITI-367 in appropriate concentration overnight (10, 1, 0.1, and 0.01 μM). [ITI-367 having been dissolved in DMSO at 10 mM concentration which was used as a stock solution (stored at −70° C.). From the stock solutions a 50 μM solution of compound in RPMI was prepared and stored at 4° C.]. After overnight incubation with compound, cells were infected with 500,000 cpm (RT activity) of the ADA strain of HIV-1 in 500 μl of RPMI with or without the compound. Two hours after infection, cells were washed with RPMI and incubated in fresh complete medium with the appropriate concentration of compound. Every 3-4 days, half of the medium was collected and used to quantify the level of virus production. Cultures were supplemented with additional medium. Infected macrophages were maintained for 2-3 weeks.

[2] = tested on: HIV-1 CCR5 clinical isolate; experiment: inhibition of HIV-1 infection of T lymphocytes (tonsil cells), p24 ELISA; assay type: cell-based
Procedure: T lymphocytes were isolated from tonsil tissue 24 hours post-surgical removal and then frozen. Aliquots of all were thawed on day of testing. There was no exogenous stimulation of the tonsil cells. The virus was a CCR5 clinical isolate at an approximate MOI of 1:40,000. Cells were incubated in the presence of ITI-367 for 19 hours prior to a 2.5 hour infection, at which time the virus inoculum was removed followed by two complete media exchanges. Cell culture media was Iscove's Media with 2 mM L-Glutamine, 100 U/ml Penicillin, 100 ug/ml Streptomycin, and 8% heat-inactivated human serum AB. The drug concentrations used were 20 uM, 10 uM, 1 uM and 0.1 uM, prepared from a 50 mM DMSO stock. A no drug infection control (media only) was also evaluated in parallel. Replicates of four or six cultures were used to assess virus production from ITI-367 treated or control samples, respectively. Virus production was evaluated on days 3, 6, 10, 13, & 17 post-infection, by specific ELISA for HIV-1 core antigen (p24). Also, in FIG. 4, virus production was evaluated as a function of drug concentrations at 0, 0.1, 0.5, 1, 5 and 10 μM.

[3] = tested on: HIV-1 CCR5 clinical isolate; experiment: ITI-367 combination assay, HIV-1 infectivity in tonsil cells, p24 ELISA; assay type: cell-based; conditions: combined with NRTi (AZT, d4T), NNRTi (efavirenz), Pi (saquinavir, nelfinavir), FIG. 5-9
Procedure: The inhibitory potential of ITI-367 was tested using HIV-1 infectivity assays in combination with different FDA-approved drugs. […] Tonsil cells, isolated 24 hours post-surgical removal of tonsil tissue then frozen, were used as the target cells. Aliquots of the cells were thawed on the day of testing. There was no exogenous stimulation of the tonsil cells. The virus was a CCR5 clinical isolate at an approximate MOI of 1:40,000. Cells were incubated in the presence of drug for 17 hours prior to a 3.5 hour infection, at which time the virus inoculum was removed through three complete media exchanges. The cells were in the presence of drug before, during, and after all media removals. […]
Cells were cultured at 37° C. and 5% CO2 Samples (150 μl) were harvested on days 3, 5, 7, and 10 post-infection for HIV-1 p24 content analysis by ELISA. […] Uninfected, untreated cells were counted at each sampling to monitor tonsil cell growth kinetics.

SMILES: COc1ccccc1-c1noc(=O)n1-c1cccc(C(F)(F)F)c1 [ITI-367]
- inhibition of association of PIC (MA p17) with karyopherin α [1]: inhibition
- inhibition of HIV-1 infection in monocyte-derived macrophages (ADA strain of HIV-1): inhibition of HIV-1 infection
- inhibition of HIV-1 infection of T lymphocytes ([2]; 20, 10, 1, 0.1 uM, p24 over a seventeen day period, FIG. 3): inhibition of HIV-1 infection
- inhibition of replication of HIV-1 in Primary Lymphocytes ([2]; virus production as a function of drug concentration 0-10 μM, FIG. 4): inhibition
- combination effect on inhibition of HIV-1 replication [3]: synergistic effect

Source: patent US20060264475A1, “COMPOUNDS, COMPOSITIONS AND METHODS FOR INHIBITING OR TREATING HIV-1” (CYTOKINE PHARMASCIENCES, INC., priority 2004, published 2006)
